# Data taken from patent publication US20090270350A1, “Pyridinone Pyrazole Urea and Pyrimidinone Pyrazole Urea Derivatives” (PFIZER INC., priority 2006, published 2009).
# Biological target: p38α (Homo sapiens, UniProt Q16539)
# Test: p38α/MK2 cascade assay
# Assay type: biochemical
# Details: Table 1; inhibitors preincubated with p38α for 40 minutes; phosphorylation of Hsp27 peptide by MK-2, Caliper LabChip 3000; read-out: p38a/MK2 Cascade 40 min Pre-Incuabtion (% Inhibition): IC50
# In short: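 In a cascade format, p38α was preincubated 40 min with inhibitor (1000–0.05 nM) before adding 1 nM nonactive MK2 (54-400), 5 μM MgATP and 0.5 μM FITC-Hsp27 peptide. Reaction ran 60 min in HEPES pH 7.5 with MgCl2, DTT, 2% DMSO, then EDTA-quenched. Peptide phosphorylation was measured by Caliper mobility shift to give IC50.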
# Sequence of p38α (Q16539 whole entry): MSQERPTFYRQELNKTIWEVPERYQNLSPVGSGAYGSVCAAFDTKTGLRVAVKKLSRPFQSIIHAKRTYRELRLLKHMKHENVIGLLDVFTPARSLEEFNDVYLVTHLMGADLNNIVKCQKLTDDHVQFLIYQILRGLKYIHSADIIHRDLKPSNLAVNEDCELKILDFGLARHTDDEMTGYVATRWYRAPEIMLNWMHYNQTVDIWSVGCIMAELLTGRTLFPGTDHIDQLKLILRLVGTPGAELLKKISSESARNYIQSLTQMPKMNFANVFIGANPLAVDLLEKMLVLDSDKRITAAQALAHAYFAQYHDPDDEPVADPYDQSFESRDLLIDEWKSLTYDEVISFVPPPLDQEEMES
row,SMILES,IC50 [nM]
1,"COc1ccc(Cn2c(C)cc(OCc3ccccc3CNC(=O)Nc3cc(C(C)(C)C)nn3-c3ccccc3)c(Br)c2=O)c(OC)c1 [Example 120, 1-[2-({[3-bromo-1-(2,4-dimethoxybenzyl)-6-methyl-2-oxo-1,2-dihydropyridin-4-yl]oxy}methyl)benzyl]-3-(3-tert-butyl-1-phenyl-1H-pyrazol-5-yl)urea]",15.5
2,"Cc1cc(OCc2ccccc2CNC(=O)Nc2cc(C(C)(C)C)nn2-c2ccccc2)c(Br)c(=O)n1Cc1ccccc1 [Example 104, 1-(2-{[(1-benzyl-3-bromo-6-methyl-2-oxo-1,2-dihydropyridin-4-yl)oxy]methyl}benzyl)-3-(3-tert-butyl-1-phenyl-1H-pyrazol-5-yl)urea]",4.52
3,"COc1cccc(-n2nc(C(C)(C)C)cc2NC(=O)NCc2ccccc2COc2cc(C)n(Cc3ccc(OC)cc3OC)c(=O)c2Br)c1 [Example 119, 1-[2-({[3-bromo-1-(2,4-dimethoxybenzyl)-6-methyl-2-oxo-1,2-dihydropyridin-4-yl]oxy}methyl)benzyl]-3-[3-tert-butyl-1-(3-methoxyphenyl)-1H-pyrazol-5-yl]urea]",11.9
4,"Cc1ccc(-n2nc(C(C)(C)C)cc2NC(=O)NCc2cc(F)ccc2COc2cc(C)n(-c3cc(C(=O)NCCO)ccc3C)c(=O)c2Br)cc1 [Example 193, 3-{3-bromo-4-[(2-{[({[3-tert-butyl-1-(4-methylphenyl)-1H-pyrazol-5-yl]amino}carbonyl)amino]methyl}-4-fluorobenzyl)oxy]-6-methyl-2-oxopyridin-1(2H)-yl}-N-(2-hydroxyethyl)-4-methylbenzamide]",2.21
5,"Cc1cc(OCc2ccccc2CNC(=O)Nc2cc(C(C)(C)C)nn2-c2ccc(F)cc2F)c(Br)c(=O)n1Cc1ccccc1 [Example 105, 1-(2-{[(1-benzyl-3-bromo-6-methyl-2-oxo-1,2-dihydropyridin-4-yl)oxy]methyl}benzyl)-3-[3-tert-butyl-1-(2,4-difluorophenyl)-1H-pyrazol-5-yl]urea]",8.19
6,"COc1ccc(Cn2c(C)cc(OCc3ccccc3CNC(=O)Nc3cc(C(C)(C)C)nn3-c3ccc(O)cc3)cc2=O)cc1 [Example 54, 1-[3-tert-butyl-1-(4-hydroxyphenyl)-1H-pyrazol-5-yl]-3-[2-({[1-(4-methoxybenzyl)-6-methyl-2-oxo-1,2-dihydropyridin-4-yl]oxy}methyl)benzyl]urea]",117
7,"COc1cccc(Cn2c(C)cc(OCc3ccc(F)cc3CNC(=O)Nc3cc(C(C)(C)C)nn3-c3cccc(OC)c3)cc2=O)c1 [Example 35, 1-[3-tert-butyl-1-(3-methoxyphenyl)-1H-pyrazol-5-yl]-3-[5-fluoro-2-({[1-(3-methoxybenzyl)-6-methyl-2-oxo-1,2-dihydropyridin-4-yl]oxy}methyl)benzyl]urea]",42.2
8,"COc1cccc(Cn2c(C)cc(OCc3ccccc3CNC(=O)Nc3cc(C(C)(C)C)nn3-c3cccc(OCCO)c3)c(C)c2=O)c1 [Example 48, 1-{3-tert-butyl-1-[3-(2-hydroxyethoxy)phenyl]-1H-pyrazol-5-yl}-3-[2-({[1-(3-methoxybenzyl)-3,6-dimethyl-2-oxo-1,2-dihydropyridin-4-yl]oxy}methyl)benzyl]urea]",6.4
9,"COc1cccc(Cn2c(C)cc(OCc3ccc(F)cc3CNC(=O)Nc3cc(C(C)(C)C)nn3-c3ccc(O[Si](C)(C)C(C)(C)C)c(Cl)c3)c(Cl)c2=O)c1 [Example 42, 1-[3-tert-butyl-1-(4-{[tert-butyl(dimethyl)silyl]oxy}-3-chlorophenyl)-1H-pyrazol-5-yl]-3-[2-({[3-chloro-1-(3-methoxybenzyl)-6-methyl-2-oxo-1,2-dihydropyridin-4-yl]oxy}methyl)-5-fluorobenzyl]urea]",116
10,"COc1ccc(Cn2c(C)cc(OCc3ccccc3CNC(=O)Nc3cc(C(C)(C)C)nn3-c3ccc(O)c(Cl)c3)c(Cl)c2=O)cc1Cl [Example 66, 1-[3-tert-butyl-1-(3-chloro-4-hydroxyphenyl)-1H-pyrazol-5-yl]-3-[2-({[3-chloro-1-(3-chloro-4-methoxybenzyl)-6-methyl-2-oxo-1,2-dihydropyridin-4-yl]oxy}methyl)benzyl]urea]",9.7
11,"COc1cccc(Cn2c(C)cc(OCc3ccccc3CNC(=O)Nc3cc(C(C)(C)C)nn3-c3cccc(OC)c3)c(Cl)c2=O)c1 [Example 44, 1-[3-tert-butyl-1-(3-methoxyphenyl)-1H-pyrazol-5-yl]-3-[2-({[3-chloro-1-(3-methoxybenzyl)-6-methyl-2-oxo-1,2-dihydropyridin-4-yl]oxy}methyl)benzyl]urea]",5.8
12,"COC(=O)c1ccc(C)c(-n2c(C)cc(OCc3ccc(F)cc3CNC(=O)Nc3cc(C(C)(C)C)nn3-c3ccc(C)cc3)c(Br)c2=O)c1 [Example 185, methyl 3-{3-bromo-4-[(2-{[({[3-tert-butyl-1-(4-methylphenyl)-1H-pyrazol-5-yl]amino}carbonyl)amino]methyl}-4-fluorobenzyl)oxy]-6-methyl-2-oxopyridin-1(2H)-yl}-4-methylbenzoate]",3.61
13,"COc1cccc(Cn2c(C)cc(OCc3ccccc3CNC(=O)Nc3cc(C(C)(C)C)nn3-c3cccc(O)c3)c(Cl)c2=O)c1 [Example 52, 1-[3-tert-butyl-1-(3-hydroxyphenyl)-1H-pyrazol-5-yl]-3-[2-({[3-chloro-1-(3-methoxybenzyl)-6-methyl-2-oxo-1,2-dihydropyridin-4-yl]oxy}methyl)benzyl]urea]",6.2
14,"Cc1ccc(-n2nc(C(C)(C)C)cc2NC(=O)NCc2ccccc2COc2cc(C)n(Cc3ccc(O)cc3)c(=O)c2Br)cc1 [Example 100, 1-[2-({[3-bromo-1-(4-hydroxybenzyl)-6-methyl-2-oxo-1,2-dihydropyridin-4-yl]oxy}methyl)benzyl]-3-[3-tert-butyl-1-(4-methylphenyl)-1H-pyrazol-5-yl]urea]",4.59

# Same assay, conditions: Table 2; same p38α/MK2 cascade assay; 40 minutes preincubation; read-out: p38a/MK2 Cascade 40 min Pre-Incuabtion (% Inhibition): IC50
row,SMILES,IC50 [nM]
1,"CSc1ccccc1Cn1c(C)cc(OCc2ccccc2CNC(=O)Nc2cc(C(C)(C)C)nn2-c2ccc(Cl)c(O)c2)c(C)c1=O [Example 277, 1-[3-tert-butyl-1-(4-chloro-3-hydroxyphenyl)-1H-pyrazol-5-yl]-3-{2-[({3,6-dimethyl-1-[2-(methylthio)benzyl]-2-oxo-1,2-dihydropyridin-4-yl}oxy)methyl]benzyl}urea]",131
2,"CNC(=O)c1ccc(C)c(-n2c(C)cc(OCc3ccccc3CNC(=O)Nc3cc(C(C)(C)C)nn3-c3cccc(OCCO)c3)c(Cl)c2=O)c1 [Example 211, 3-[4-{[2-({[({3-tert-butyl-1-[3-(2-hydroxyethoxy)phenyl]-1H-pyrazol-5-yl}amino)carbonyl]amino}methyl)benzyl]oxy}-3-chloro-6-methyl-2-oxopyridin-1(2H)-yl]-N,4-dimethylbenzamide]",2.6
3,"Cc1ccc(C(=O)NCC(O)CO)cc1-n1c(C)cc(OCc2ccccc2CNC(=O)Nc2cc(C(C)(C)C)nn2-c2cccc(OCCO)c2)c(Cl)c1=O (centres unmarked) [Example 212, 3-[4-{[2-({[({3-tert-butyl-1-[3-(2-hydroxyethoxy)phenyl]-1H-pyrazol-5-yl}amino)carbonyl]amino}methyl)benzyl]oxy}-3-chloro-6-methyl-2-oxopyridin-1(2H)-yl]-N-(2,3-dihydroxypropyl)-4-methylbenzamide]",1.8
4,"CNC(=O)c1ccc(C)c(-n2c(C)cc(OCc3ccccc3CNC(=O)Nc3cc(C(C)(C)C)nn3-c3ccc(O)c(Cl)c3)c(Cl)c2=O)c1 [Example 223, 3-{4-[(2-{[({[3-tert-butyl-1-(3-chloro-4-hydroxyphenyl)-1H-pyrazol-5-yl]amino}carbonyl)amino]methyl}benzyl)oxy]-3-chloro-6-methyl-2-oxopyridin-1(2H)-yl}-N,4-dimethylbenzamide]",4.6
5,"COCCNC(=O)c1ccc(C)c(-n2c(C)cc(OCc3ccccc3CNC(=O)Nc3cc(C(C)(C)C)nn3-c3ccc(O)c(Cl)c3)c(Cl)c2=O)c1 [Example 225, 3-{4-[(2-{[({[3-tert-butyl-1-(3-chloro-4-hydroxyphenyl)-1H-pyrazol-5-yl]amino}carbonyl)amino]methyl}benzyl)oxy]-3-chloro-6-methyl-2-oxopyridin-1(2H)-yl}-N-(2-methoxyethyl)-4-methylbenzamide]",3.03
6,"COc1cccc(Cn2c(C)cc(OCc3ccccc3CNC(=O)Nc3cc(C(C)(C)C)nn3-c3ccc(O)c(Cl)c3)c(Cl)c2=O)c1 [Example 215, 1-[3-tert-butyl-1-(3-chloro-4-hydroxyphenyl)-1H-pyrazol-5-yl]-3-[2-({[3-chloro-1-(3-methoxy-benzyl)-6-methyl-2-oxo-1,2-dihydropyridin-4-yl]oxy}methyl)-benzyl]urea]",8
7,"COc1cc(Cn2c(C)cc(OCc3ccccc3CNC(=O)Nc3cc(C(C)(C)C)nn3-c3cccc(OCCO)c3)c(Cl)c2=O)ccc1Cl [Example 255, 1-{3-tert-butyl-1-[3-(2-hydroxyethoxy)phenyl]-1H-pyrazol-5-yl}-3-[2-({[3-chloro-1-(4-chloro-3-methoxybenzyl)-6-methyl-2-oxo-1,2-dihydropyridin-4-yl]oxy}methyl)benzyl]urea]",7.2
8,"Cc1ccc(C(=O)NCCN(C)C)cc1-n1c(C)cc(OCc2ccccc2CNC(=O)Nc2cc(C(C)(C)C)nn2-c2cccc(OCCO)c2)c(Cl)c1=O [Example 240, 3-[4-{[2-({[({3-tert-butyl-1-[3-(2-hydroxyethoxy)phenyl]-1H-pyrazol-5-yl}amino)carbonyl]amino}methyl)benzyl]oxy}-3-chloro-6-methyl-2-oxopyridin-1(2H)-yl]-N-[2-(dimethylamino)-ethyl]-4-methylbenzamide]",2.1
9,"Cc1ccc(C(=O)NCCN(C)C)cc1-n1c(C)cc(OCc2ccccc2CNC(=O)Nc2cc(C(C)(C)C)nn2-c2ccc(O)c(Cl)c2)c(Cl)c1=O [Example 229, 3-{4-[(2-{[({[3-tert-butyl-1-(3-chloro-4-hydroxyphenyl)-1H-pyrazol-5-yl]amino}carbonyl)amino]methyl}benzyl)oxy]-3-chloro-6-methyl-2-oxopyridin-1(2H)-yl}-N-[2-(dimethylamino)-ethyl]-4-methylbenzamide]",2.3
